Measurements as given in article PMC2887388 (Journal of natural products, 2009).

Experiments:
[1] = system: HT-29 human colon cancer cell line; experiment: Cytotoxicity assay against HT-29 human colon cancer cell line; format: cell-based; settings: HT-29, read-out: cytotoxicity ED50
HT-29 cells = experiment: In vivo hollow fiber assay, HT-29 cells; design: species or system human; settings: cells implanted at i.p. site; doses 2.5, 5, 10, 20 mg/kg
[2] = system: LNCaP (hormone-dependent human prostate cancer) cells; experiment: In vivo hollow fiber assay, LNCaP cells; settings: cells implanted at i.p. site; doses 2.5, 5, 10, 20 mg/kg

Work on COc1cc2oc3cc(O)c(OC)c(CC=C(C)C)c3c(=O)c2c2c1CC(O)C(C)(C)O2 (centres unmarked) [Compound 1, 11-hydroxy-3-O-methyl-1-isomangostin] yielded an IC50 [1] of over 10 µM.

With COc1c(O)cc2oc3cc(O)c(CC=C(C)C)c(O)c3c(=O)c2c1CC=C(C)C [Compound 5, α-mangostin] the “activity in hollow fiber assay (HT-29)” value (HT-29 cells) was “inactive” and the “activity in hollow fiber assay (LNCaP)” value [2] was “inactive”.

COc1c(O)cc2oc3cc4c(c(O)c3c(=O)c2c1CC=C(C)C)[C@@H](c1c(O)c(CC=C(C)C)c(O)c2c(=O)c3c(CC=C(C)C)c(OC)c(O)cc3oc12)[C@H](C(C)(C)O)O4 [Compound 11, cratoxyxanthone] gave an IC50 [1] of over 10 µM.

COc1c(O)cc2oc3cc(O)c4c(c3c(=O)c2c1CC=C(C)C)OC(C)(C)C(O)C4 (centres unmarked) [Compound 2, 11-hydroxy-1-isomangostin] was tested, and the IC50 [1] was over 10 µM.
